Measurements as given in patent US10918648B2, “Estrogen receptor modulator combinations” (The Regents of the University of California, priority 2016, dated 2021).
Where two headings read alike, the source gives them in different places.

Columns and labels:
ER+ early breast cancer = settings: cited from earlier work
MCF-7 parental cells = settings: MCF-7 parental xenografts in nude mice; cited from earlier work
MCF-7/HER-2 cells = settings: MCF-7 cells with HER2-overexpression, xenografts in nude mice; cited from earlier work
A549 NSCLC cells = assay: NSCLC cell proliferation in vitro (MTS assay); assay type: cell-based, human; settings: 72 hours, MTS assay
H2122 NSCLC cells = assay: NSCLC cell proliferation in vitro (MTS assay); assay type: cell-based, human; settings: 72 hours
Description: (§1) Cell culture: Human breast and non-small cell lung cancer cells (MCF7, ZR75-1, MDAMB231, A549, H23, H1975, […]) were from ATCC. MCF7-HER2 were a kind gift of Dr. Dennis Slamon (23). Cell lines were routinely maintained in RPMI 1640 or DMEM medium with 10% fetal bovine serum (FBS) (Sigma-Aldrich) and 1% Antibiotic-Antimycotic solution 100× (Mediatech, Herndon, Va.). When indicated, for estrogen-free conditions, media was changed 48 h before experiments to phenol-red free RPMI 1640/DMEM with 1% dextran-coated, charcoal-treated (DCC)-FBS (24,25). Otherwise experiments were performed in phenol-red free RPMI 1640/DMEM medium with 5% DCC-FBS.
(§2) Cell proliferation assays: breast and lung tumor cells (between […]) were plated in 96 well plates using their respective medium with 10% FBS. For experiments using estradiol-17β, cells were rinsed with PBS and incubated with phenol redfree medium with 1% DCC-FBS for 48 hours as described before (24,25). Cells were then treated with different concentrations of SERDs ranging between 0.0001-100 μM. […] Cell counts and viability tests (Trypan blue) were done every 24 hr for 3 days. After 72 hr, proliferation was assessed with the MTS Assay CELLTITER 96® Aqueous Cell Proliferation Assay (Promega) or the Cell Proliferation ELISA, BrdU colorimetric assay (Roche). For the MTS, the absorbance of the formazan product was measured at 490 nanometer using the iMARK microplate reader from BIORAD. The BrdU ELISA assay is based on detection of BrdU incorporated into the genomic DNA of proliferating cells and an anti-BrdU antibody, the reaction product was quantified by measuring the absorbance at 370 nanometers using iMARK microplate reader from BIORAD. Cell numbers were also assessed initially by cell counts to confirm MTS/BrdU data. Experiments were done at least three times to confirm data.

H1975 NSCLC cells = assay: NSCLC cell proliferation in vitro (MTS assay); assay type: cell-based, human; settings: 72 hours
Description: as §1, §2

[1] = system: MCF-7 breast cancer cells; assay: MCF-7 breast cancer cell proliferation (BrdU ELISA) in presence of estradiol-17β; assay type: cell-based, human; settings: Homo sapiens, MCF7; 72 hrs in the presence of 1 nM estradiol-17β, BrdU ELISA; read-out: IC50 for inhibition of cell proliferation, MCF-7
Description: In experiments to assess potential proliferative effects of novel estrogen receptor ligands, human breast cancer cells were grown in phenol red-free, estrogen-free media with 1% dextran-coated charcoal-treated (DCC)-fetal bovine serum (FBS) for 48 hrs (15,44), then treated with either 1 μM or 50 μM doses of estrogen receptor antagonists in the presence of 1 nM estradiol-17β. Cell counts and viability tests (Trypan blue) were done every 24 hr for 3 days. After 72 hr, proliferation was assessed using the BrdU Cell proliferation ELISA (Roche). Cell numbers were also assessed initially by cell counts to confirm ELISA data. Each antiestrogen was tested at least in three different experiments.
In order to assess the antitumor action of novel estrogen receptor antagonists, we cultured human MCF-7 breast cancer cells with known expression of ERα. Cells were grown in 1% DCC-FBS for 48 hr and then treated with vehicle control or either 1 μM or 50 μM concentrations of antiestrogens JD 101-160 or the pure antiestrogen fulvestrant (FAS), all in the presence of 1 nM estradiol-170. […] Shown in FIG. 2A are results from MCF-7 cells grown in 1% DCC-FBS for 48 hr and then treated with vehicle control, 1 nM estradiol-170 and either 1 μM or 50 μM concentrations of antiestrogens JD 101-160 or the known pure antiestrogen fulvestrant (FAS) in the presence of 1 nM estradiol-170. Cell proliferation is expressed as percentage of that determined in the 1 nM estradiol-170-treated control group.
as §2

Rb serine-780 = Rb serine-780 phosphorylation, Western blot in A549 cells; assay type: cell-based, human; settings: 24 h, 1% DCC-FBS, 1 nM E2, 1 nM androstenedione, 10 nM testosterone, 10 μM letrozole, 100 nM palbociclib, FIG. 4C
Description: FIG. 4C. […] Cells were treated 24 h in phenol red-free RPMI with 1% DCC-FBS with vehicle control (CON), 1 nM estradiol-17β (E2), 1 nM androstenedione (And), 10 nM testosterone (Tes), 10 μM letrozole (AI), 100 nM palbociclib (Plbo) or both Plbo+AI. After 24 hr, cell lysates subjected to Western blot with antibody to phosphoserine-780 Rb or total Rb (Cell Signaling) (20). GAPDH is used as loading control.
To investigate the antitumor efficacy of CDK 4/6 inhibitor palbociclib in NSCLC cells, we assessed the effects of palbociclib alone and in combination with the hormonal therapeutic letrozole (see FIGS. 4B and 5B). The potential mechanism of action of palbociclib and letrozole in NSCLC cells was investigated by assay of the effects of these agents alone and combined on phosphorylation of Rb serine-780

[2] = Homo sapiens, A549, CDK 4/6 inhibitor without SERD, 5% DCC-FBS, read-out: IC50 for inhibition of NSCLC cell proliferation, A549
[3] = Homo sapiens, NCI-H2122, CDK 4/6 inhibitor without SERD, 5% DCC-FBS, read-out: IC50 for inhibition of NSCLC cell proliferation, H2122
[4] = Homo sapiens, NCI-H1975, CDK 4/6 inhibitor without SERD, 5% DCC-FBS, read-out: IC50 for inhibition of NSCLC cell proliferation, H1975
[5] = Homo sapiens, A549, SERD alone, estrogen-depleted phenol red-free medium with 5% DCC-FBS, read-out: IC50 for inhibition of NSCLC cell proliferation, A549
[6] = Homo sapiens, NCI-H2122, SERD alone, estrogen-depleted phenol red-free medium with 5% DCC-FBS, read-out: IC50 for inhibition of NSCLC cell proliferation, H2122
[7] = Homo sapiens, NCI-H1975, SERD alone, estrogen-depleted phenol red-free medium with 5% DCC-FBS, read-out: IC50 for inhibition of NSCLC cell proliferation, H1975

CC/C(=C(\c1ccccc1)c1ccc(OCCN(C)C)cc1)c1ccccc1 [tamoxifen]
reduction in disease recurrence (ER+ early breast cancer): 39% | reduction in mortality (ER+ early breast cancer): 31% | growth of parent tumors (xenografts) (MCF-7 parental cells): suppressed | sensitivity of MCF-7/HER-2 xenografts (MCF-7/HER-2 cells): insensitive

CCN1CCN(Cc2ccc(Nc3ncc(F)c(-c4cc(F)c5nc(C)n(C(C)C)c5c4)n3)nc2)CC1 [Abemaciclib, abemaciclib, reference compound]
IC50 (A549 NSCLC cells; [2]): 0.99 µM | IC50 (H2122 NSCLC cells; [3]): 0.33 µM | IC50 (H1975 NSCLC cells; [4]): 0.83 µM

CC(=O)c1c(C)c2cnc(Nc3ccc(N4CCNCC4)cn3)nc2n(C2CCCC2)c1=O [Palbociclib, palbociclib, reference compound]
IC50 (A549 NSCLC cells; [2]): 3.04 µM | IC50 (H2122 NSCLC cells; [3]): 0.87 µM | IC50 (H1975 NSCLC cells; [4]): 1.18 µM

CN(C)CCCC(=O)Nc1ccc(O[C@H]2C[C@]3(C)[C@@H](O)CC[C@H]3[C@@H]3CCc4cc(O)ccc4[C@H]32)cc1C(F)(F)F [JD155, N-(4-(((8S,9S,11S,13S,14S,17S)-3,17-Dihydroxy-13-methyl-7,8,9,11,12,13,14,15,16,17-deca-hydro-6H-cyclopenta[a]phenanthren-11-yl)oxy)-2-(trifluoromethyl)phenyl)-4-(dimethylamino)butanamide]
IC50 (A549 NSCLC cells; [5]): 2.05 µM | IC50 (H2122 NSCLC cells; [6]): 1.22 µM | IC50 (H1975 NSCLC cells; [7]): 4.41 µM

C[C@]12C[C@H](Oc3ccc(NC(=O)CCCCN4CCCCC4)c(C(F)(F)F)c3)[C@@H]3c4ccc(O)cc4CC[C@H]3[C@@H]1CC[C@@H]2O [JD156, N-(4-(((8S,9S,11S,13S,14S,17S)-3,17-Dihydroxy-13-methyl-7,8,9,11,12,13,14,15,16,17-deca-hydro-6H-cyclopenta[a]phenanthren-11-yl)oxy)-2-(trifluoromethyl)phenyl)-5-(piperidin-1-yl)pentanamide]
IC50 (A549 NSCLC cells; [5]): 1.6 µM | IC50 (H2122 NSCLC cells; [6]): 1.69 µM | IC50 (H1975 NSCLC cells; [7]): 3.2 µM

C[C@]12C[C@H](Oc3ccc(NCCN4CCOCC4)cc3)[C@@H]3c4ccc(O)cc4CC[C@H]3[C@@H]1CC[C@@H]2O [JD121]
IC50 (A549 NSCLC cells; [5]): 1.26 µM | IC50 [1]: 0.36 µM | IC50 (H2122 NSCLC cells; [6]): 14.5 µM | IC50 (H1975 NSCLC cells; [7]): 2.62 µM

C[C@]12CC[C@H]3[C@@H](CCC4=CC(=O)CC[C@@]43C)[C@@H]1CC[C@@H]2O [testosterone]
phosphorylation of Rb serine-780 (Rb serine-780): stimulate Rb phosphorylation

C[C@]12CCC(=O)C=C1CC[C@@H]1[C@@H]2CC[C@]2(C)C(=O)CC[C@@H]12 [androstenedione]
phosphorylation of Rb serine-780 (Rb serine-780): stimulate Rb phosphorylation

C[C@]12C[C@H](Oc3ccc(NC(=O)CCCCN4CCOCC4)c(C(F)(F)F)c3)[C@@H]3c4ccc(O)cc4CC[C@H]3[C@@H]1CC[C@@H]2O [JD157, N-(4-(((8S,9S,11S,13S,14S,17S)-3,17-Dihydroxy-13-methyl-7,8,9,11,12,13,14,15,16,17-deca-hydro-6H-cyclopenta[a]phenanthren-11-yl)oxy)-2-(trifluoromethyl)phenyl)-5-morpholino-pentanamide]
IC50 (A549 NSCLC cells; [5]): 3.95 µM | IC50 (H2122 NSCLC cells; [6]): 1.28 µM | IC50 (H1975 NSCLC cells; [7]): 1.8 µM

C[C@]12C[C@H](Oc3ccc(NC(=O)CCCN4CCCCC4)c(C(F)(F)F)c3)[C@@H]3c4ccc(O)cc4CC[C@H]3[C@@H]1CC[C@@H]2O [JD160, N-(4-(((8S,9S,11S,13S,14S,17S)-3,17-Dihydroxy-13-methyl-7,8,9,11,12,13,14,15,16,17-deca-hydro-6H-cyclopenta[a]phenanthren-11-yl)oxy)-2-(trifluoromethyl)phenyl)-4-(piperidin-1-yl)butanamide]
IC50 (A549 NSCLC cells; [5]): 1.41 µM | IC50 [1]: 0.32 µM | IC50 (H2122 NSCLC cells; [6]): 2.72 µM | IC50 (H1975 NSCLC cells; [7]): 2.02 µM

C[C@]12C[C@H](Oc3ccc(NC(=O)CN4CCOCC4)cc3)[C@@H]3c4ccc(O)cc4CC[C@H]3[C@@H]1CC[C@@H]2O [JD103, N-(4-(((8S,9S,11S,13S,14S,17S)-3,17-Dihydroxy-13-methyl-7,8,9,11,12,13,14,15,16,17-deca-hydro-6H-cyclopenta[a]phenanthren-11-yl)oxy)phenyl)-2-morpholinoacetamide]
IC50 (A549 NSCLC cells; [5]): 1.99 µM | IC50 (A549 NSCLC cells; in the presence of 1 μM abemaciclib, 5% DCC-FBS, read-out: IC50 of SERD for inhibition of NSCLC cell proliferation, A549): 0.56 µM | IC50 (A549 NSCLC cells; in the presence of 1 μM palbociclib, 5% DCC-FBS, read-out: IC50 of SERD for inhibition of NSCLC cell proliferation, A549): 1.22 µM | IC50 [1]: 0.74 µM | IC50 (H2122 NSCLC cells; [6]): 1.33 µM | IC50 (H2122 NSCLC cells; in the presence of 1 μM abemaciclib, 5% DCC-FBS, read-out: IC50 of SERD for inhibition of NSCLC cell proliferation, H2122): 0.74 µM | IC50 (H2122 NSCLC cells; in the presence of 1 μM palbociclib, 5% DCC-FBS, read-out: IC50 of SERD for inhibition of NSCLC cell proliferation, H2122): 2.4 µM | IC50 (H1975 NSCLC cells; [7]): 2.1 µM | IC50 (H1975 NSCLC cells; in the presence of 1 μM abemaciclib, 5% DCC-FBS, read-out: IC50 of SERD for inhibition of NSCLC cell proliferation, H1975): 2.67 µM | IC50 (H1975 NSCLC cells; in the presence of 1 μM palbociclib, 5% DCC-FBS, read-out: IC50 of SERD for inhibition of NSCLC cell proliferation, H1975): 4.55 µM
